{"source": "patent US20230085307A1", "about": "“PYRIDAZINONE COMPOUND AND HERBICIDE” (NISSAN CHEMICAL CORPORATION, priority 2019, published 2023)", "key": {"green foxtail [1]": {"system": "green foxtail", "assay": "Test Example 5: herbicidal effect by foliage application, plastic box (Table 20, symbol G)", "format": "in vivo, green foxtail (Setaria viridis)", "details": "foliage application, AAH 320 g/ha, evaluated three weeks after application", "outline": "(§1)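 Sow seeds spot-wise in sterilized diluvial soil; cover with ~1.5 cm soil. Grow 14 days in greenhouse, 25° C. to 30° C. Spray foliage with emulsion diluted to predetermined amount. Rate effect after 3 weeks.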"}, "false cleavers": {"system": "false cleavers", "assay": "Test Example 5: herbicidal effect by foliage application, plastic box (Table 20, symbol Q)", "format": "in vivo, false cleavers (Galium spurium)", "details": "foliage application, AAH 320 g/ha, evaluated three weeks after application", "outline": "as §1"}, "velvetleaf [2]": {"system": "velvetleaf", "assay": "Test Example 5: herbicidal effect by foliage application, plastic box (Table 20, symbol M)", "format": "in vivo, velvetleaf (Abutilon theophrasti)", "details": "foliage application, AAH 320 g/ha, evaluated three weeks after application", "outline": "as §1"}, "chickweed [3]": {"system": "chickweed", "assay": "Test Example 4: herbicidal effect by soil treatment (Table 19, symbol P)", "format": "in vivo, common chickweed (Stellaria media)", "details": "amount of applied herbicide 320 g/ha", "outline": "(§2)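 Applied as a water-diluted emulsion, the compound was sprayed onto soil covering newly sown seeds. Evaluation came three weeks after application, in a greenhouse held at 25° C. to 30° C.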"}, "barnyard grass [4]": {"system": "barnyard grass", "assay": "Test Example 4: herbicidal effect by soil treatment (Table 19, symbol H)", "format": "in vivo, barnyard grass (Echinochloa crus-galli)", "details": "amount of applied herbicide 320 g/ha", "outline": "as §2"}, "windgrass [5]": {"system": "windgrass", "assay": "Test Example 4: herbicidal effect by soil treatment (Table 19, symbol L)", "format": "in vivo, windgrass (Apera spica-venti)", "details": "amount of applied herbicide 320 g/ha", "outline": "as §2"}, "wild oat [6]": {"system": "wild oat", "assay": "Test Example 4: herbicidal effect by soil treatment (Table 19, symbol I)", "format": "in vivo, wild oat (Avena fatua)", "details": "amount of applied herbicide 320 g/ha", "outline": "as §2"}, "oval-leafed pondweed": {"system": "oval-leafed pondweed", "assay": "Test Example 1: herbicidal activity, application before weed generation under submerged conditions (Table 16, symbol C)", "format": "in vivo, oval-leafed pondweed (Monochoria vaginalis)", "details": "320 g/ha applied herbicide", "outline": "(§3)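 Emulsion formulation, water-diluted to set dose, was put onto the flooded surface (4 cm depth, alluvial soil) the same day weeds were sown and 2.5-leaf rice transplanted. After 3 weeks at 25-30 °C under glass, each species was rated 0 (≤5% kill) to 5 (≥90% kill).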"}, "blackgrass [7]": {"system": "blackgrass", "assay": "Test Example 5: herbicidal effect by foliage application, plastic box (Table 20, symbol J)", "format": "in vivo, blackgrass (Alopecurus myosuroides)", "details": "foliage application, AAH 320 g/ha, evaluated three weeks after application", "outline": "as §1"}, "barnyard grass [8]": {"system": "barnyard grass", "assay": "Test Example 3: herbicidal effect by foliage application, Wagner pot (Table 18, symbol H)", "format": "in vivo, barnyard grass (Echinochloa crus-galli)", "details": "amount of applied herbicide 320 g/ha", "outline": "(§4)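 Plants were sown in alluvial soil held under 0.1–0.5 cm standing water and grown 14 days in a greenhouse at 25–30 °C. An emulsifiable formulation, water-diluted to the set dose, was then sprayed onto the foliage, and effects were scored three weeks later using previously defined criteria.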"}, "Japanese bulrush": {"system": "Japanese bulrush", "assay": "Test Example 1: herbicidal activity, application before weed generation under submerged conditions (Table 16, symbol B)", "format": "in vivo, Japanese bulrush (Schoenoplectus juncoides)", "details": "320 g/ha applied herbicide", "outline": "as §3"}, "persian speedwell [9]": {"system": "persian speedwell", "assay": "Test Example 4: herbicidal effect by soil treatment (Table 19, symbol R)", "format": "in vivo, Persian speedwell (Veronica persica)", "details": "amount of applied herbicide 320 g/ha", "outline": "as §2"}, "southern crabgrass [10]": {"system": "southern crabgrass", "assay": "Test Example 5: herbicidal effect by foliage application, plastic box (Table 20, symbol F)", "format": "in vivo, southern crabgrass (Digitaria ciliaris)", "details": "foliage application, AAH 320 g/ha, evaluated three weeks after application", "outline": "as §1"}, "velvetleaf [11]": {"system": "velvetleaf", "assay": "Test Example 4: herbicidal effect by soil treatment (Table 19, symbol M)", "format": "in vivo, velvetleaf (Abutilon theophrasti)", "details": "amount of applied herbicide 320 g/ha", "outline": "as §2"}, "redroot pigweed [12]": {"system": "redroot pigweed", "assay": "Test Example 5: herbicidal effect by foliage application, plastic box (Table 20, symbol N)", "format": "in vivo, redroot pigweed (Amaranthus retroflexus)", "details": "foliage application, AAH 320 g/ha, evaluated three weeks after application", "outline": "as §1"}, "Italian ryegrass [13]": {"system": "Italian ryegrass", "assay": "Test Example 5: herbicidal effect by foliage application, plastic box (Table 20, symbol K)", "format": "in vivo, Italian ryegrass (Lolium multiflorum)", "details": "foliage application, AAH 320 g/ha, evaluated three weeks after application", "outline": "as §1"}, "Italian ryegrass [14]": {"system": "Italian ryegrass", "assay": "Test Example 4: herbicidal effect by soil treatment (Table 19, symbol K)", "format": "in vivo, Italian ryegrass (Lolium multiflorum)", "details": "amount of applied herbicide 320 g/ha", "outline": "as §2"}, "redroot pigweed [15]": {"system": "redroot pigweed", "assay": "Test Example 4: herbicidal effect by soil treatment (Table 19, symbol N)", "format": "in vivo, redroot pigweed (Amaranthus retroflexus)", "details": "amount of applied herbicide 320 g/ha", "outline": "as §2"}, "lambsquarters [16]": {"system": "lambsquarters", "assay": "Test Example 4: herbicidal effect by soil treatment (Table 19, symbol O)", "format": "in vivo, lambsquarters (Chenopodium album)", "details": "amount of applied herbicide 320 g/ha", "outline": "as §2"}, "southern crabgrass [17]": {"system": "southern crabgrass", "assay": "Test Example 4: herbicidal effect by soil treatment (Table 19, symbol F)", "format": "in vivo, southern crabgrass (Digitaria ciliaris)", "details": "amount of applied herbicide 320 g/ha", "outline": "as §2"}, "late watergrass": {"system": "late watergrass", "assay": "Test Example 1: herbicidal activity, application before weed generation under submerged conditions (Table 16, symbol A)", "format": "in vivo, late watergrass (Echinochloa oryzicola)", "details": "320 g/ha applied herbicide", "outline": "as §3"}, "chickweed [18]": {"system": "chickweed", "assay": "Test Example 5: herbicidal effect by foliage application, plastic box (Table 20, symbol P)", "format": "in vivo, common chickweed (Stellaria media)", "details": "foliage application, AAH 320 g/ha, evaluated three weeks after application", "outline": "as §1"}, "rice flat sedge": {"system": "rice flat sedge", "assay": "Test Example 3: herbicidal effect by foliage application, Wagner pot (Table 18, symbol E)", "format": "in vivo, rice flat sedge (Cyperus iria)", "details": "amount of applied herbicide 320 g/ha", "outline": "as §4"}, "barnyard grass [19]": {"system": "barnyard grass", "assay": "Test Example 5: herbicidal effect by foliage application, plastic box (Table 20, symbol H)", "format": "in vivo, barnyard grass (Echinochloa crus-galli)", "details": "foliage application, AAH 320 g/ha, evaluated three weeks after application", "outline": "as §1"}, "Chinese sprangletop": {"system": "Chinese sprangletop", "assay": "Test Example 3: herbicidal effect by foliage application, Wagner pot (Table 18, symbol D)", "format": "in vivo, chinese sprangletop (Leptochloa chinensis)", "details": "amount of applied herbicide 320 g/ha", "outline": "as §4"}, "green foxtail [20]": {"system": "green foxtail", "assay": "Test Example 4: herbicidal effect by soil treatment (Table 19, symbol G)", "format": "in vivo, green foxtail (Setaria viridis)", "details": "amount of applied herbicide 320 g/ha", "outline": "as §2"}, "persian speedwell [21]": {"system": "persian speedwell", "assay": "Test Example 5: herbicidal effect by foliage application, plastic box (Table 20, symbol R)", "format": "in vivo, Persian speedwell (Veronica persica)", "details": "foliage application, AAH 320 g/ha, evaluated three weeks after application", "outline": "as §1"}, "wild oat [22]": {"system": "wild oat", "assay": "Test Example 5: herbicidal effect by foliage application, plastic box (Table 20, symbol I)", "format": "in vivo, wild oat (Avena fatua)", "details": "foliage application, AAH 320 g/ha, evaluated three weeks after application", "outline": "as §1"}, "windgrass [23]": {"system": "windgrass", "assay": "Test Example 5: herbicidal effect by foliage application, plastic box (Table 20, symbol L)", "format": "in vivo, windgrass (Apera spica-venti)", "details": "foliage application, AAH 320 g/ha, evaluated three weeks after application", "outline": "as §1"}, "blackgrass [24]": {"system": "blackgrass", "assay": "Test Example 4: herbicidal effect by soil treatment (Table 19, symbol J)", "format": "in vivo, blackgrass (Alopecurus myosuroides)", "details": "amount of applied herbicide 320 g/ha", "outline": "as §2"}, "lambsquarters [25]": {"system": "lambsquarters", "assay": "Test Example 5: herbicidal effect by foliage application, plastic box (Table 20, symbol O)", "format": "in vivo, lambsquarters (Chenopodium album)", "details": "foliage application, AAH 320 g/ha, evaluated three weeks after application", "outline": "as §1"}}}
{"compound": "Cc1nn(C)c(=O)c(-c2c(-c3ccc(OC(F)F)cc3)sc3ccc(F)cc23)c1OS(=O)(=O)c1ccc(Cl)cc1", "note": "[2-311]", "values": [{"measurement": "G: green foxtail, herbicidal effect (criteria 0-5)", "setting": "green foxtail [1]", "result": "5 (Herbicidal rate of 90% or more (almost completely withered))"}, {"measurement": "Q: false cleavers, herbicidal effect (criteria 0-5)", "setting": "false cleavers", "result": "5 (Herbicidal rate of 90% or more (almost completely withered))"}, {"measurement": "M: velvetleaf, herbicidal effect (criteria 0-5)", "setting": "velvetleaf [2]", "result": "5 (Herbicidal rate of 90% or more (almost completely withered))"}, {"measurement": "herbicidal effect on P: chickweed", "setting": "chickweed [3]", "result": "3 (Herbicidal rate of 40% or more and less than 70%)"}, {"measurement": "herbicidal effect on H: barnyard grass", "setting": "barnyard grass [4]", "result": "0 (Herbicidal rate of 5% or less (almost no effect))"}, {"measurement": "herbicidal effect on L: windgrass", "setting": "windgrass [5]", "result": "0 (Herbicidal rate of 5% or less (almost no effect))"}, {"measurement": "herbicidal effect on I: wild oat", "setting": "wild oat [6]", "result": "0 (Herbicidal rate of 5% or less (almost no effect))"}, {"measurement": "Herbicidal effect on C: oval-leafed pondweed (grade 0-5)", "setting": "oval-leafed pondweed", "result": "3 (Herbicidal rate of 40% or more and less than 70%)"}, {"measurement": "J: blackgrass, herbicidal effect (criteria 0-5)", "setting": "blackgrass [7]", "result": "3 (Herbicidal rate of 40% or more and less than 70%)"}, {"measurement": "herbicidal effect on H: barnyard grass", "setting": "barnyard grass [8]", "result": "5 (Herbicidal rate of 90% or more (almost completely withered))"}, {"measurement": "Herbicidal effect on B: Japanese bulrush (grade 0-5)", "setting": "Japanese bulrush", "result": "3 (Herbicidal rate of 40% or more and less than 70%)"}, {"measurement": "herbicidal effect on R: persian speedwell", "setting": "persian speedwell [9]", "result": "4 (Herbicidal rate of 70% or more and less than 90%)"}, {"measurement": "F: southern crabgrass, herbicidal effect (criteria 0-5)", "setting": "southern crabgrass [10]", "result": "2 (Herbicidal rate of 20% or more and less than 40%)"}, {"measurement": "herbicidal effect on M: velvetleaf", "setting": "velvetleaf [11]", "result": "2 (Herbicidal rate of 20% or more and less than 40%)"}, {"measurement": "N: redroot pigweed, herbicidal effect (criteria 0-5)", "setting": "redroot pigweed [12]", "result": "5 (Herbicidal rate of 90% or more (almost completely withered))"}, {"measurement": "K: Italian ryegrass, herbicidal effect (criteria 0-5)", "setting": "Italian ryegrass [13]", "result": "5 (Herbicidal rate of 90% or more (almost completely withered))"}, {"measurement": "herbicidal effect on K: Italian ryegrass", "setting": "Italian ryegrass [14]", "result": "4 (Herbicidal rate of 70% or more and less than 90%)"}, {"measurement": "herbicidal effect on N: redroot pigweed", "setting": "redroot pigweed [15]", "result": "4 (Herbicidal rate of 70% or more and less than 90%)"}, {"measurement": "herbicidal effect on O: lambsquarters", "setting": "lambsquarters [16]", "result": "5 (Herbicidal rate of 90% or more (almost completely withered))"}, {"measurement": "herbicidal effect on F: southern crabgrass", "setting": "southern crabgrass [17]", "result": "0 (Herbicidal rate of 5% or less (almost no effect))"}, {"measurement": "Herbicidal effect on A: late watergrass (grade 0-5)", "setting": "late watergrass", "result": "3 (Herbicidal rate of 40% or more and less than 70%)"}, {"measurement": "P: chickweed, herbicidal effect (criteria 0-5)", "setting": "chickweed [18]", "result": "5 (Herbicidal rate of 90% or more (almost completely withered))"}, {"measurement": "herbicidal effect on E: rice flat sedge", "setting": "rice flat sedge", "result": "4 (Herbicidal rate of 70% or more and less than 90%)"}, {"measurement": "H: barnyard grass, herbicidal effect (criteria 0-5)", "setting": "barnyard grass [19]", "result": "5 (Herbicidal rate of 90% or more (almost completely withered))"}, {"measurement": "herbicidal effect on D: Chinese sprangletop", "setting": "Chinese sprangletop", "result": "2 (Herbicidal rate of 20% or more and less than 40%)"}, {"measurement": "herbicidal effect on G: green foxtail", "setting": "green foxtail [20]", "result": "0 (Herbicidal rate of 5% or less (almost no effect))"}, {"measurement": "R: persian speedwell, herbicidal effect (criteria 0-5)", "setting": "persian speedwell [21]", "result": "5 (Herbicidal rate of 90% or more (almost completely withered))"}, {"measurement": "I: wild oat, herbicidal effect (criteria 0-5)", "setting": "wild oat [22]", "result": "3 (Herbicidal rate of 40% or more and less than 70%)"}, {"measurement": "L: windgrass, herbicidal effect (criteria 0-5)", "setting": "windgrass [23]", "result": "4 (Herbicidal rate of 70% or more and less than 90%)"}, {"measurement": "herbicidal effect on J: blackgrass", "setting": "blackgrass [24]", "result": "0 (Herbicidal rate of 5% or less (almost no effect))"}, {"measurement": "O: lambsquarters, herbicidal effect (criteria 0-5)", "setting": "lambsquarters [25]", "result": "5 (Herbicidal rate of 90% or more (almost completely withered))"}]}
